The values that follow come from patent publication US6610282B1, “Polymeric controlled release compositions” (Rohm and Haas Company, priority 1998, dated 2003).

The structures appear in SMILES notation.

A short description of the data set: Release of 4,5-dichloro-2-octyl-3-isothiazolone from dry marine paint film in synthetic sea water. The class given is physicochemical. The conditions noted are these: 14 Days in synthetic sea water; marine paint film with 5%wt active on glass slides, dried 6 days; HPLC of film extract. On the procedure:
The compositions of Example 1 were evaluated for the control of the release of biologically active molecules in a marine paint.
A blank paint, that is one that contained no biologically active molecules, was dosed with Samples 2-5. The amount of the samples added was such that the total amount of 4,5-dichloro-2-octyl-3-isothiazolone in the paint was 5%wt, based on the total weight of the dry paint film. A control paint was prepared by adding 4,5-dichloro-2-octyl-3-isothiazolone alone. Glass slides were painted with the treated paints as well as the control paint and allowed to dry in a hood for 6 days. The slides were then submerged in a tank of synthetic sea water. The slides were removed after 14 days and the paint film extracted. The extracts were analyzed by HPLC to determine the amount of 4,5-dichloro-2-octyl-3-isothiazolone remaining.

Consider `CCCCCCCCn1sc(Cl)c(Cl)c1=O` [Control, 4,5-dichloro-2-octyl-3-isothiazolone], for which the “% of 4,5-Dichloro-2-n-octyl-3-isothiazolone Released” value is reported as 29.0%.
